pIC50: −log10 of the molar value. Each block holds one molecule with its values, some of them ahead of it.
Biological target: T1, human Nav1.8/b3 (Homo sapiens, UniProt Q9Y5Y9)
T1 construct: expressed in transfected cells; host or cells: CHO
Assay: Compound Profiling Human NaV1.8/β3 Cell Line—SyncroPatch384PE Assay (automated patch clamp, stably transfected CHO cells)
Format: cell-based
Conditions: Nav1.8/b3 CHO cells

[1] = P1 (IC50, resting state block), P1 measurement, resting state block, holding potential −120 mV, first set of compounds
[2] = P2 (IC50, inactivated state block), P2 measurement, inactivated state block, inactivation step −35 mV 10 sec, first set of compounds
[3] = P1 (IC50, resting state block), P1 measurement, resting state block, holding potential −120 mV, third set of compounds
[4] = P2 (IC50, inactivated state block), P2 measurement, inactivated state block, inactivation step −35 mV 10 sec, third set of compounds
[5] = P1 (IC50, resting state block), P1 measurement, resting state block, holding potential −120 mV, second set of compounds
[6] = P2 (IC50, inactivated state block), P2 measurement, inactivated state block, inactivation step −35 mV 10 sec, second set of compounds
[7] = P1 (IC50, resting state block), P1 measurement, resting state block, holding potential −120 mV, fourth set of compounds
[8] = P2 (IC50, inactivated state block), P2 measurement, inactivated state block, inactivation step −35 mV 10 sec, fourth set of compounds

T1 sequence (Q9Y5Y9 whole entry): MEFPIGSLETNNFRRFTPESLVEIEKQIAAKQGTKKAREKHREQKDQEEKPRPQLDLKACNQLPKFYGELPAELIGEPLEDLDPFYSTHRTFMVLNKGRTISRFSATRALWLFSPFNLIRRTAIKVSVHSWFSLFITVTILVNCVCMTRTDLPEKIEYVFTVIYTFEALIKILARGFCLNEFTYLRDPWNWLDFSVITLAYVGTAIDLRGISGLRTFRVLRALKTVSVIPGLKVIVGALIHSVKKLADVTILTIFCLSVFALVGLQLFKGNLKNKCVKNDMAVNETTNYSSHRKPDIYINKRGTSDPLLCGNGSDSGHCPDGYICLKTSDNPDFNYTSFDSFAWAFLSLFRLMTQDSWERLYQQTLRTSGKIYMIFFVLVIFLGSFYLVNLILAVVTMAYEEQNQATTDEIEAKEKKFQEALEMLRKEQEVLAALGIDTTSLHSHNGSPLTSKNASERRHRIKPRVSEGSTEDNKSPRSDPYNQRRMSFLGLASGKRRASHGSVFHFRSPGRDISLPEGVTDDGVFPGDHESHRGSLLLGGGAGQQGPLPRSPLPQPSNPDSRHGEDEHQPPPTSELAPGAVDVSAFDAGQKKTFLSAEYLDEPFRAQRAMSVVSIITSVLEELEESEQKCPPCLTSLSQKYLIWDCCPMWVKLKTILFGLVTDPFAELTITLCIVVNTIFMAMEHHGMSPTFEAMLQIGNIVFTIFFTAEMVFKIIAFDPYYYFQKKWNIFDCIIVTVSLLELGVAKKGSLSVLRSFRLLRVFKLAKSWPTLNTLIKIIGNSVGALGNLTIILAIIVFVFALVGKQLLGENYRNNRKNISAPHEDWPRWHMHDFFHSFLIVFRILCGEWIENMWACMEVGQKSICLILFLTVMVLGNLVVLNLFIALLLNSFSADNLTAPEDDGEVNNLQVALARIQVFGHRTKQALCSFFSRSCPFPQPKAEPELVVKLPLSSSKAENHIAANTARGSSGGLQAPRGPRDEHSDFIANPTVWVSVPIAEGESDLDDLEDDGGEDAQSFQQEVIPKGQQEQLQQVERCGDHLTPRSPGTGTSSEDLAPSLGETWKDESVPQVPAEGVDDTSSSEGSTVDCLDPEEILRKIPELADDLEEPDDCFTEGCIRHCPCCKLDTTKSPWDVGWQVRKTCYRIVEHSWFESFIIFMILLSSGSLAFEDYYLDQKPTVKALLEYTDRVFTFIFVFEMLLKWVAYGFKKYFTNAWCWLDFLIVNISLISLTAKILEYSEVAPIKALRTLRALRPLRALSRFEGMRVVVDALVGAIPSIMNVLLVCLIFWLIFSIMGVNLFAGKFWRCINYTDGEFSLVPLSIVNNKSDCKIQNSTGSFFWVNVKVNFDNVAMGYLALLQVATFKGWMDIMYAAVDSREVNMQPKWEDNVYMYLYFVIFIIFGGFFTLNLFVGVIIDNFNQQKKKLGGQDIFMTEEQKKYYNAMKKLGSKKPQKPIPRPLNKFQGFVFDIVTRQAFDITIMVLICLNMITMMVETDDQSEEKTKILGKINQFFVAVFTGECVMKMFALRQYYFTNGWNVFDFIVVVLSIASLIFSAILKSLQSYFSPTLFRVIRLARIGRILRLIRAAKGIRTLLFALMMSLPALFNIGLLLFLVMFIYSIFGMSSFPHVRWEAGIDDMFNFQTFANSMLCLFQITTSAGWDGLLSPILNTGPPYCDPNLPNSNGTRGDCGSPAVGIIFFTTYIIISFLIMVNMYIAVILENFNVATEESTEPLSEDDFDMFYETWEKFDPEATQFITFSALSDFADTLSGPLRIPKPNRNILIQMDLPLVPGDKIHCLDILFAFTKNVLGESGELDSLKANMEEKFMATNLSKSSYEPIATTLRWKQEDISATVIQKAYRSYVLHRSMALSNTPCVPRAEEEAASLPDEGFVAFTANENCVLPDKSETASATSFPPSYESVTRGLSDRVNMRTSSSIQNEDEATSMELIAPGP
T1 sequence (Q9NY72 23-215 partner): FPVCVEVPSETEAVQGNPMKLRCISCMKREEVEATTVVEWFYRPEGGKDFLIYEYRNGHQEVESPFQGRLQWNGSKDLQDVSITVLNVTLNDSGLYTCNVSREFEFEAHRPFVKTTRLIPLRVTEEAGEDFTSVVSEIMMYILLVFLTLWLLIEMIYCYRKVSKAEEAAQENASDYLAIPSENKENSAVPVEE

SMILES: Cc1nc(F)ccc1Oc1ncc(C(F)(F)F)c(C)c1C(=O)Nc1ccnc([S@@](C)(=N)=O)c1 (single isomer, unassigned) [Example 10C]
- pIC50 [3]: 7.30 to 8.30
- pIC50 [4]: 7.30 to 8.30

SMILES: Cc1nc(F)ccc1Oc1ncc(C(F)(F)F)c(C)c1C(=O)Nc1ccnc([S@](C)(=N)=O)c1 (single isomer, unassigned) [Example 11C]
- pIC50 [3]: 7.30 to 8.30
- pIC50 [4]: 7.30 to 8.30

SMILES: Cc1nc(F)ccc1Oc1ncc(C(F)(F)F)c(C)c1C(=O)Nc1ccc(F)c([S@@](C)(=N)=O)c1 (single isomer, unassigned) [Example 14C]
- pIC50 [3]: 7.30 to 8.30
- pIC50 [4]: 7.30 to 8.30

SMILES: Cc1nc(F)ccc1Oc1ncc(C(F)(F)F)c(C)c1C(=O)Nc1ccc(F)c([S@](C)(=N)=O)c1 (single isomer, unassigned) [Example 15C]
- pIC50 [3]: 7.30 to 8.30
- pIC50 [4]: 7.30 to 8.30

SMILES: COc1cc(C#N)ccc1Oc1ncc(-c2cnn(C)c2)c(C)c1C(=O)Nc1cccc([S@](C)(=N)=O)c1 [Example 1C, (R)-2-(4-cyano-2-methoxyphenoxy)-4-methyl-5-(1-methyl-1H-pyrazol-4-yl)-N-(3-(S-methylsulfonimidoyl)phenyl)nicotinamide]
- pIC50 [3]: 7.00 to 7.30
- pIC50 [4]: 7.00 to 7.30

SMILES: Cc1nc(F)ccc1Oc1cc(C(F)(F)F)ccc1C(=O)Nc1cccc([S@](C)(=N)=O)c1 [Example 2A, (R)-2-((6-fluoro-2-methylpyridin-3-yl)oxy)-N-(3-(S-methylsulfonimidoyl)phenyl)-4-(trifluoromethyl)benzamide]
- pIC50 [1]: 7.30 to 8.30
- pIC50 [2]: 7.30 to 8.30

SMILES: Cc1nc(F)ccc1Oc1ncc(-c2ccc(C(F)F)cc2)c(C)c1C(=O)Nc1cccc([S@](C)(=N)=O)c1 [Example 2C, (R)-5-(4-(difluoromethyl)phenyl)-2-((6-fluoro-2-methylpyridin-3-yl)oxy)-4-methyl-N-(3-(S-methylsulfonimidoyl)phenyl)nicotinamide]
- pIC50 [3]: 7.30 to 8.30
- pIC50 [4]: 7.30 to 8.30

SMILES: Cc1nc(F)ccc1Oc1ccc(C(F)(F)F)c(C)c1C(=O)Nc1cccc([S@](C)(=N)=O)c1 [Example 3A, (R)-6-((6-fluoro-2-methylpyridin-3-yl)oxy)-2-methyl-N-(3-(S-methylsulfonimidoyl)phenyl)-3-(trifluoromethyl)benzamide]
- pIC50 [1]: > 8.30
- pIC50 [2]: > 8.30

SMILES: Cc1nc(F)ccc1Oc1ncc(-c2ccc(C#N)cc2)c(C)c1C(=O)Nc1cccc([S@](C)(=N)=O)c1 [Example 3C, (R)-5-(4-cyanophenyl)-2-((6-fluoro-2-methylpyridin-3-yl)oxy)-4-methyl-N-(3-(S-methylsulfonimidoyl)phenyl)nicotinamide]
- pIC50 [3]: 7.30 to 8.30
- pIC50 [4]: 7.30 to 8.30

SMILES: CC(=O)N=[S@](C)(=O)c1cccc(NC(=O)c2c(Oc3ccc(F)nc3C)ncc(C(F)(F)F)c2C)c1 [Example 3D, (R)—N-(3-(N-acetyl-S-methylsulfonimidoyl)phenyl)-2-((6-fluoro-2-methylpyridin-3-yl)oxy)-4-methyl-5-(trifluoromethyl)nicotinamide]
- pIC50 [7]: > 8.30
- pIC50 [8]: > 8.30

SMILES: Cc1nc(F)ccc1Oc1ccc(C(F)(F)F)c(F)c1C(=O)Nc1cccc([S@](C)(=N)=O)c1 [Example 4A, (R)-2-fluoro-6-((6-fluoro-2-methylpyridin-3-yl)oxy)-N-(3-(S-methylsulfonimidoyl)phenyl)-3-(trifluoromethyl)benzamide]
- pIC50 [1]: > 8.30
- pIC50 [2]: > 8.30

SMILES: Cc1nc(F)ccc1Oc1ncc(-c2ccc3c(c2)OCCO3)c(C)c1C(=O)Nc1cccc([S@](C)(=N)=O)c1 [Example 4C, (R)-5-(2,3-dihydrobenzo[b][1,4]dioxin-6-yl)-2-((6-fluoro-2-methylpyridin-3-yl)oxy)-4-methyl-N-(3-(S-methylsulfonimidoyl)phenyl)nicotinamide]
- pIC50 [3]: 7.30 to 8.30
- pIC50 [4]: 7.30 to 8.30

SMILES: Cc1nc(F)ccc1Oc1ncc(C(F)(F)F)c(C)c1C(=O)Nc1cccc([S@@](C)(=O)=NC(=O)C2CNC2)c1 [Example 4D, (R)—N-(3-(N-(azetidine-3-carbonyl)-S-methylsulfonimidoyl)phenyl)-2-((6-fluoro-2-methylpyridin-3-yl)oxy)-4-methyl-5-(trifluoromethyl)nicotinamide]
- pIC50 [7]: > 8.30
- pIC50 [8]: > 8.30

SMILES: COc1cc(C#N)ccc1Oc1ncc(C(F)(F)F)c(C)c1C(=O)Nc1cccc([S@](C)(=N)=O)c1 [Example 5C, (R)-2-(4-cyano-2-methoxyphenoxy)-4-methyl-N-(3-(S-methylsulfonimidoyl)phenyl)-5-(trifluoromethyl)nicotinamide]
- pIC50 [3]: > 8.30
- pIC50 [4]: > 8.30

SMILES: Cc1nc(F)ccc1Oc1ncc(C(F)(F)F)c(C)c1C(=O)Nc1cccc([S@@](C)(=O)=NC(=O)C2(N)CC2)c1 [Example 5D, (R)—N-(3-(N-(1-aminocyclopropane-1-carbonyl)-S-methylsulfonimidoyl)phenyl)-2-((6-fluoro-2-methylpyridin-3-yl)oxy)-4-methyl-5-(trifluoromethyl)nicotinamide]
- pIC50 [7]: > 8.30
- pIC50 [8]: > 8.30

SMILES: Cc1nc(F)ccc1Oc1ncc(-c2ccc(F)c(F)c2)c(C)c1C(=O)Nc1cccc([S@](C)(=N)=O)c1 [Example 6C, (R)-5-(3,4-difluorophenyl)-2-((6-fluoro-2-methylpyridin-3-yl)oxy)-4-methyl-N-(3-(S-methylsulfonimidoyl)phenyl)nicotinamide]
- pIC50 [3]: > 8.30
- pIC50 [4]: > 8.30

Next, values leading:

- pIC50 [1]: 7.30 to 8.30
- pIC50 [2]: 7.30 to 8.30
SMILES: Cc1nc(F)ccc1Oc1cc(C(F)(F)F)c(Cl)cc1C(=O)Nc1ccnc([S@@](C)(=N)=O)c1 (single isomer, unassigned) [Example 5A]

- pIC50 [1]: > 8.30
- pIC50 [2]: > 8.30
SMILES: Cc1nc(F)ccc1Oc1cc(C(F)(F)F)c(Cl)cc1C(=O)Nc1ccnc([S@](C)(=N)=O)c1 (single isomer, unassigned) [Example 6A]

- pIC50 [1]: > 8.30
- pIC50 [2]: > 8.30
SMILES: Cc1nc(F)ccc1Oc1cc(C(F)(F)F)c(Cl)cc1C(=O)Nc1cccc([S@](C)(=N)=O)c1 [Example 1A, (R)-5-chloro-2-((6-fluoro-2-methylpyridin-3-yl)oxy)-N-(3-(S-methylsulfonimidoyl)phenyl)-4-(trifluoromethyl)benzamide]

- pIC50 [5]: > 8.30
- pIC50 [6]: > 8.30
SMILES: Cc1nc(F)ccc1Oc1cc(C(F)(F)F)c(Cl)cc1C(=O)Nc1cccc([S@@](C)(=O)=NC(=O)[C@@H](C)O)c1 [Example 1B, 5-chloro-2-((6-fluoro-2-methylpyridin-3-yl)oxy)-N-(3-((R)—N—((R)-2-hydroxypropanoyl)-S-methylsulfonimidoyl)phenyl)-4-(trifluoromethyl)benzamide]

- pIC50 [7]: > 8.30
- pIC50 [8]: > 8.30
SMILES: CNCC(=O)N=[S@](C)(=O)c1cccc(NC(=O)c2c(Oc3ccc(F)nc3C)ncc(C(F)(F)F)c2C)c1 [Example 1D, (R)-2-((6-fluoro-2-methylpyridin-3-yl)oxy)-4-methyl-N-(3-(S-methyl-N-(methylglycyl)sulfonimidoyl)phenyl)-5-(trifluoromethyl)nicotinamide]

- pIC50 [5]: > 8.30
- pIC50 [6]: > 8.30
SMILES: Cc1nc(F)ccc1Oc1cc(C(F)(F)F)c(Cl)cc1C(=O)Nc1cccc([S@@](C)(=O)=NC(=O)CO)c1 [Example 2B, (R)-5-chloro-2-((6-fluoro-2-methylpyridin-3-yl)oxy)-N-(3-(N-(2-hydroxyacetyl)-S-methylsulfonimidoyl)phenyl)-4-(trifluoromethyl)benzamide]

- pIC50 [7]: > 8.30
- pIC50 [8]: > 8.30
SMILES: Cc1nc(F)ccc1Oc1ncc(C(F)(F)F)c(C)c1C(=O)Nc1cccc([S@@](C)(=O)=NC(=O)CN)c1 [Example 2D, (R)-2-((6-fluoro-2-methylpyridin-3-yl)oxy)-N-(3-(N-glycyl-S-methylsulfonimidoyl)phenyl)-4-methyl-5-(trifluoromethyl)nicotinamide]

- pIC50 [5]: > 8.30
- pIC50 [6]: > 8.30
SMILES: Cc1nc(F)ccc1Oc1cc(C(F)(F)F)c(Cl)cc1C(=O)Nc1cccc([S@@](C)(=O)=NC(=O)[C@H](C)O)c1 [Example 3B, 5-chloro-2-((6-fluoro-2-methylpyridin-3-yl)oxy)-N-(3-((R)—N—((S)-2-hydroxypropanoyl)-S-methylsulfonimidoyl)phenyl)-4-(trifluoromethyl)benzamide]

- pIC50 [5]: > 8.30
- pIC50 [6]: > 8.30
SMILES: Cc1nc(F)ccc1Oc1cc(C(F)(F)F)c(Cl)cc1C(=O)Nc1cccc([S@@](C)(=O)=NC(=O)CN)c1 [Example 4B, (R)-5-chloro-2-((6-fluoro-2-methylpyridin-3-yl)oxy)-N-(3-(N-glycyl-S-methylsulfonimidoyl)phenyl)-4-(trifluoromethyl)benzamide]

- pIC50 [5]: > 8.30
- pIC50 [6]: > 8.30
SMILES: Cc1nc(F)ccc1Oc1cc(C(F)(F)F)c(Cl)cc1C(=O)Nc1cccc([S@@](C)(=O)=NC(=O)[C@@H](C)N)c1 [Example 5B, N-(3-((R)—N-(D-alanyl)-S-methylsulfonimidoyl)phenyl)-5-chloro-2-((6-fluoro-2-methylpyridin-3-yl)oxy)-4-(trifluoromethyl)benzamide]

- pIC50 [5]: > 8.30
- pIC50 [6]: > 8.30
SMILES: Cc1nc(F)ccc1Oc1cc(C(F)(F)F)c(Cl)cc1C(=O)Nc1cccc([S@@](C)(=O)=NC(=O)C2(N)CCC2)c1 [Example 6B, (R)—N-(3-(N-(1-aminocyclobutane-1-carbonyl)-S-methylsulfonimidoyl)phenyl)-5-chloro-2-((6-fluoro-2-methylpyridin-3-yl)oxy)-4-(trifluoromethyl)benzamide]

Source: US20260356804A1, “SODIUM CHANNEL BLOCKING COMPOUNDS, DERIVATIVES THEREOF, AND METHODS OF THEIR USE” (LATIGO BIOTHERAPEUTICS, INC., priority 2022, published 2026)
